What follows are compounds tested against T1, NHE-1 (Homo sapiens, UniProt P19634) (assay: Evaluation of NHE-1 Inhibition (pHi) in HT-29 cells). Conditions: BCECF dye, 50% inhibition of the intracellular pH recovery, read-out: NHE1 HT29 pHi IC50.
T1 construct: endogenous in cells; host or cells: HT-29
T1 sequence (P19634 whole entry): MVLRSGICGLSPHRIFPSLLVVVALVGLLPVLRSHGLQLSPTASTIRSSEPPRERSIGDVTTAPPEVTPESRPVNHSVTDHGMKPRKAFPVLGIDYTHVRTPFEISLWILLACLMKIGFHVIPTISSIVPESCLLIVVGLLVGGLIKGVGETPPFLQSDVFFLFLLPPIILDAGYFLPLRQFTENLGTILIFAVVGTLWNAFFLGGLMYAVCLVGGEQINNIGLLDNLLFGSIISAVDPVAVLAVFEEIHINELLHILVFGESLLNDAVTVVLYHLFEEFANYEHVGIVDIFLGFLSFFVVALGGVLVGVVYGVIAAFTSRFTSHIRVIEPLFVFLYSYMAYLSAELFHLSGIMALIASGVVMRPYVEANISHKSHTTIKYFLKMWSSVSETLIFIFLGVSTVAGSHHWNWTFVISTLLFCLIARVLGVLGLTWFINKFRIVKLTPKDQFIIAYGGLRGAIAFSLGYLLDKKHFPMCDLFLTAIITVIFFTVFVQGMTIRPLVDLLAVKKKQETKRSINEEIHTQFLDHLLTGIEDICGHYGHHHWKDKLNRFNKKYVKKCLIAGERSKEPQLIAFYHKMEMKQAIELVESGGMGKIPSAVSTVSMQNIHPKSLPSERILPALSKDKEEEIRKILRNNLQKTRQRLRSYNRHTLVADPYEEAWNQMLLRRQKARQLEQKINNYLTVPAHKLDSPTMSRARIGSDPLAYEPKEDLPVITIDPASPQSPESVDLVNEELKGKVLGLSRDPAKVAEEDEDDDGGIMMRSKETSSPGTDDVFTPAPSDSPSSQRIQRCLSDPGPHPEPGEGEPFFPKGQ
Format: cell-based
How it was run: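 Intracellular pH measured with BCECF in HT-29 cells after 24 h culture. Cells dye-loaded 30 min at 37° C, then acid-loaded with NH4Cl-containing choline buffer (pH 7.5) for 30 min at RT. Compounds added on an FDSS6000 fluorescence reader.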
In the case of COc1ncccc1C(=O)N1CCC(c2ccc(C(=O)NC(=N)N)cc2C(F)(F)F)CC1 [N-{4-[1-(2-Methoxy-pyridine-3-carbonyl)-piperidin-4-yl]-3-trifluoromethyl-benzoyl}-guanidine], the IC50 is reported as 42 nM. N=C(N)NC(=O)c1ccc(C2CCN(C(=O)c3cccc(F)c3)CC2)c(C(F)(F)F)c1 [N-{4-[1-(3-Fluoro-benzoyl)-piperidin-4-yl]-3-trifluoromethyl-benzoyl}-guanidine] was tested, and the IC50 was 105 nM. With CS(=O)(=O)c1ccccc1C(=O)N1CC=C(c2ccc(C(=O)NC(=N)N)cc2C(F)(F)F)CC1 [N-{4-[1-(2-Methanesulfonyl-benzoyl)-1,2,3,6-tetrahydro-pyridin-4-yl]-3-trifluoromethyl-benzoyl}-guanidine] the IC50 was 73 nM. With CC(C)(N)C(=O)N1CCC(c2ccc(C(=O)NC(=N)N)cc2C(F)(F)F)CC1 [N-{4-[1-(2-Amino-2-methyl-propionyl)-piperidin-4-yl]-3-trifluoromethyl-benzoyl}-guanidine] the IC50 was 8 nM. For N=C(N)NC(=O)c1ccc(C2CCN(C(=O)c3ccc(N4CCCC4)nc3)CC2)c(C(F)(F)F)c1 [N-{4-[1-(6-Pyrrolidin-1-yl-pyridine-3-carbonyl)-piperidin-4-yl]-3-trifluoromethyl-benzoyl}-guanidine], the IC50 was 75 nM. N=C(N)NC(=O)c1ccc(C2CCN(C(=O)C3(N)CCCC3)CC2)c(C(F)(F)F)c1 [N-{4-[1-(1-Amino-cyclopentanecarbonyl)-piperidin-4-yl]-3-trifluoromethyl-benzoyl}-guanidine] was tested, and the IC50 was 2 nM. In the case of Cc1ccc(C(=O)N2CCC(c3cc(C)c(C(=O)NC(=N)N)cc3C(F)(F)F)CC2)cn1 [N-{2-Methyl-4-[1-(6-methyl-pyridine-3-carbonyl)-piperidin-4-yl]-trifluoromethyl-benzoyl}-guanidine], the IC50 is reported as 82 nM. For CC(C)(C)C(N)C(=O)N1CCC(c2ccc(C(=O)NC(=N)N)cc2C(F)(F)F)CC1 (stereo not drawn) [N-{4-[1-(2-Amino-3,3-dimethyl-butyryl)-piperidin-4-yl]-3-trifluoromethyl-benzoyl}-guanidine], the IC50 was 16 nM. CC(=O)N1CCC(c2cc(C)c(C(=O)NC(=N)N)cc2S(C)(=O)=O)CC1 [N-[4-(1-Acetyl-piperidin-4-yl)-5-methanesulfonyl-2-methyl-benzoyl]-guanidine] gave an IC50 of 12 nM. Work on COCC(=O)N1CCC(c2ccc(C(=O)NC(=N)N)cc2S(C)(=O)=O)CC1 [N-{3-methanesulfonyl-4-[1-(2-methoxy-acetyl)-piperidin-4-yl]-benzoyl}-guanidine] yielded an IC50 of 24 nM. In the case of N=C(N)NC(=O)c1ccc(C2CCN(C(=O)C(N)Cc3ccncc3)CC2)c(C(F)(F)F)c1 (stereo not drawn) [N-{4-[1-(2-Amino-3-pyridin-4-yl-propionyl)-piperidin-4-yl]-3-trifluoromethyl-benzoyl}-guanidine], the IC50 is reported as 32 nM. Work on N=C(N)NC(=O)c1ccc(C2CCN(C(=O)c3ccc(Cl)cc3)CC2)c(C(F)(F)F)c1 [N-{4-[1-(4-Chloro-benzoyl)-piperidin-4-yl]-3-trifluoromethyl-benzoyl}-guanidine] yielded an IC50 of 320 nM. Work on CS(=O)(=O)c1ccc(Oc2ccc(C(=O)N3CCC(c4ccc(C(=O)NC(=N)N)cc4C(F)(F)F)CC3)cn2)cc1 [N-(4-{1-[6-(4-Methanesulfonyl-phenoxy)-pyridine-3-carbonyl]-piperidin-4-yl}-3-trifluoromethyl-benzoyl)-guanidine] yielded an IC50 of 54 nM. For N=C(N)NC(=O)c1ccc(C2CCN(C(=O)CCN)CC2)c(C(F)(F)F)c1 [N-{4-[1-(3-Amino-propionyl)-piperidin-4-yl]-3-trifluoromethyl-benzoyl}-guanidine], the IC50 was 8 nM. N=C(N)NC(=O)c1ccc(C2CCN(C(=O)C3CCNCC3)CC2)c(C(F)(F)F)c1 [N-{4-[1-(Piperidine-4-carbonyl)-piperidin-4-yl]-3-trifluoromethyl-benzoyl}-guanidine] gave an IC50 of 6 nM. COc1cc(C(=O)N2CCC(c3ccc(C(=O)NC(=N)N)cc3C(F)(F)F)CC2)ccn1 [N-{4-[1-(2-Methoxy-pyridine-4-carbonyl)-piperidin-4-yl]-3-trifluoromethyl-benzoyl}-guanidine] gave an IC50 of 40 nM. COc1ccc(C(=O)N2CCC(c3ccc(C(=O)NC(=N)N)cc3C(F)(F)F)CC2)c2ccccc12 [N-{4-[1-(4-Methoxy-naphthalene-1-carbonyl)-piperidin-4-yl]-3-trifluoromethyl-benzoyl}-guanidine] was tested, and the IC50 was 320 nM. For N=C(N)NC(=O)c1ccc(C2CCN(C(=O)C3CCCC3)CC2)c(C(F)(F)F)c1 [N-[4-(1-Cyclopentanecarbonyl-piperidin-4-yl)-3-trifluoromethyl-benzoyl]-guanidine], the IC50 was 77 nM. Compound Cc1cc(C2CCN(C(=O)c3ccc(C#N)cc3)CC2)c(C(F)(F)F)cc1C(=O)NC(=N)N [N-{4-[1-(4-cyano-benzoyl)-piperidin-4-yl]-2-methyl-5-trifluoromethyl-benzoyl}-guanidine] has an IC50 of 36 nM. With N=C(N)NC(=O)c1ccc(C2CCN(C(=O)C3CC3)CC2)c(C(F)(F)F)c1 [N-[4-(1-Cyclopropanecarbonyl-piperidin-4-yl)-3-trifluoromethyl-benzoyl]-guanidine] the IC50 was 16 nM. In the case of N=C(N)NC(=O)c1ccc(C2CCN(C(=O)c3ccc(O)cc3)CC2)c(C(F)(F)F)c1 [N-{4-[1-(4-Hydroxy-benzoyl)-piperidin-4-yl]-3-trifluoromethyl-benzoyl}-guanidine], the IC50 is reported as 25 nM. CNS(=O)(=O)c1ccc(Oc2ccc(C(=O)N3CCC(c4ccc(C(=O)NC(=N)N)cc4C(F)(F)F)CC3)cn2)cc1 [4-{5-[4-(4-Guanidinocarbonyl-2-trifluoromethyl-phenyl)-piperidine-1-carbonyl]-pyridin-2-yloxy}-N-methyl-benzenesulfonamide] gave an IC50 of 92 nM. Cn1cncc1C(=O)N1CCC(c2ccc(C(=O)NC(=N)N)cc2C(F)(F)F)CC1 [N-{4-[1-(3-Methyl-3H-imidazole-4-carbonyl)-piperidin-4-yl]-3-trifluoromethyl-benzoyl}-guanidine] was tested, and the IC50 was 15 nM. For N=C(N)NC(=O)c1ccc(C2CCN(C(=O)c3ccc[nH]3)CC2)c(C(F)(F)F)c1 [N-{4-[1-(1H-Pyrrole-2-carbonyl)-piperidin-4-yl]-3-trifluoromethyl-benzoyl}-guanidine], the IC50 was 46 nM. N=C(N)NC(=O)c1ccc(C2CCN(C(=O)c3cccc(S(=O)(=O)C(F)(F)F)c3)CC2)c(C(F)(F)F)c1 [N-{4-[1-(3-Trifluoromethanesulfonyl-benzoyl)-piperidin-4-yl]-3-trifluoromethyl-benzoyl}-guanidine] gave an IC50 of 280 nM. N#Cc1ccc(CC(N)C(=O)N2CCC(c3ccc(C(=O)NC(=N)N)cc3C(F)(F)F)CC2)cc1 (stereo not drawn) [N-(4-{1-[2-Amino-3-(4-cyano-phenyl)-propionyl]-piperidin-4-yl}-3-trifluoromethyl-benzoyl)-guanidine] was tested, and the IC50 was 58 nM. Compound N#Cc1ccccc1C(=O)N1CC=C(c2ccc(C(=O)NC(=N)N)cc2C(F)(F)F)CC1 [N-{4-[1-(2-Cyano-benzoyl)-1,2,3,6-tetrahydro-pyridin-4-yl]-3-trifluoromethyl-benzoyl}-guanidine] has an IC50 of 93 nM. In the case of CNC(=O)c1ccc(C(=O)N2CCC(c3ccc(C(=O)NC(=N)N)cc3C(F)(F)F)CC2)cc1 [4-[4-(4-Guanidinocarbonyl-2-trifluoromethyl-phenyl)-piperidine-1-carbonyl]-N-methyl-benzamide], the IC50 is reported as 43 nM. Compound N=C(N)NC(=O)c1ccc(C2CCN(C(=O)c3ccc4cccnc4n3)CC2)c(C(F)(F)F)c1 [N-{4-[1-([1,8]Naphthyridine-2-carbonyl)-piperidin-4-yl]-3-trifluoromethyl-benzoyl}-guanidine] has an IC50 of 25 nM. N=C(N)NC(=O)c1ccc(C2CCN(C(=O)c3cccc(-c4cnco4)c3)CC2)c(C(F)(F)F)c1 [N-{4-[1-(3-Oxazol-5-yl-benzoyl)-piperidin-4-yl]-3-trifluoromethyl-benzoyl}-guanidine] was tested, and the IC50 was 14 nM. With N=C(N)NC(=O)c1ccc(C2CCN(C(=O)C3CCCN3)CC2)c(C(F)(F)F)c1 (stereo not drawn) [N-{4-[1-(Pyrrolidine-2-carbonyl)-piperidin-4-yl]-3-trifluoromethyl-benzoyl}-guanidine] the IC50 was 11 nM. Cc1cc(C2CCN(C(=O)c3cccc(C#N)c3)CC2)c(S(C)(=O)=O)cc1C(=O)NC(=N)N [N-{4-[1-(3-cyano-benzoyl)-piperidin-4-yl]-5-methanesulfonyl-2-methyl-benzoyl}-guanidine] gave an IC50 of 23 nM. N=C(N)NC(=O)c1ccc(C2CCN(C(=O)c3cncc(-c4ccc(F)cc4)c3)CC2)c(C(F)(F)F)c1 [N-(4-{1-[5-(4-Fluoro-phenyl)-pyridine-3-carbonyl]-piperidin-4-yl}-3-trifluoromethyl-benzoyl)-guanidine] was tested, and the IC50 was 185 nM. Work on N=C(N)NC(=O)c1ccc(C2CCN(C(=O)c3ccc(C(F)(F)F)cc3F)CC2)c(C(F)(F)F)c1 [N-{4-[1-(2-Fluoro-4-trifluoromethyl-benzoyl)-piperidin-4-yl]-3-trifluoromethyl-benzoyl}-guanidine] yielded an IC50 of 305 nM. N=C(N)NC(=O)c1ccc(C2CCN(C(=O)[C@H](N)c3ccccc3)CC2)c(C(F)(F)F)c1 [(R)-N-{4-[1-(2-Amino-2-phenyl-acetyl)-piperidin-4-yl]-3-trifluoromethyl-benzoyl}-guanidine] gave an IC50 of 24 nM. For N=C(N)NC(=O)c1ccc(C2CCN(C(=O)C3CCNC3)CC2)c(C(F)(F)F)c1 (stereo not drawn) [N-{4-[1-(Pyrrolidine-3-carbonyl)-piperidin-4-yl]-3-trifluoromethyl-benzoyl}-guanidine], the IC50 was 5 nM. N=C(N)NC(=O)c1ccc(C2CCN(C(=O)c3ccc(-c4cnco4)cc3)CC2)c(C(F)(F)F)c1 [N-{4-[1-(4-Oxazol-5-yl-benzoyl)-piperidin-4-yl]-3-trifluoromethyl-benzoyl}-guanidine] gave an IC50 of 109 nM. COc1cccc(C(=O)N2CCC(c3ccc(C(=O)NC(=N)N)cc3C(F)(F)F)CC2)c1 [N-{4-[1-(3-Methoxy-benzoyl)-piperidin-4-yl]-3-trifluoromethyl-benzoyl}-guanidine] gave an IC50 of 106 nM. For N=C(N)NC(=O)c1ccc(C2CCN(C(=O)C3(N)CCc4ccccc43)CC2)c(C(F)(F)F)c1 (stereo not drawn) [N-{4-[1-(1-Amino-indane-1-carbonyl)-piperidin-4-yl]-3-trifluoromethyl-benzoyl}-guanidine], the IC50 was 18 nM.

Reference: patent publication US20110118262A1, “Pyrrolidinyl and Piperidinyl Compounds Useful as NHE-1 Inhibitiors” (BOEHRINGER INGELHEIM INTERNATIONAL GMBH, priority 2008, published 2011)
